# From patent US9757368B2, “Anti-inflammatory agents” (Resverlogix Corp., priority 2009, dated 2017)
# Experiments:
# [1] = system: hIL-6 mRNA; test: Quantification of hIL-6 mRNA in LPS-stimulated U937 macrophages (real-time PCR); assay type: cell-based, human; set-up: key: Active: an active compound is one that causes a ≧20% inhibition in IL-6 mRNA at a concentration less than or equal to 10 μM; conditions: U937 cells differentiated with PMA, 1 h pretreatment, LPS 1 μg/mL, 3 h; IL-6 mRNA normalised to hCyclophilin; compound ≤10 μM
# Protocol: In this example, hIL-6 mRNA in tissue culture cells was quantitated to measure the transcriptional inhibition of hIL-6 when treated with a compound of the invention.
# A human leukemic monocytic lymphoma cell line (U937) was plated (3.2×10^5 cells per well) in a 96-well plate in 100 μL RPMI 1640+10% FBS, and differentiated into macrophages with PMA (60 ng/mL) for 3 days prior to the addition of the compound of interest. The cells were pretreated for 1 h with the test compound in DMSO prior to stimulation with lipopolysaccharide from Escherichia coli at 1 μg/mL. The cells were incubated for 3 h before harvest. At the time of harvest, cells were rinsed in 200 μL PBS. Cell lysis solution (70 μL) was added the cells for 10 min, and mRNA was then prepared using the “mRNA Catcher PLUS plate” (Invitrogen), according to the protocol supplied.
# The eluted mRNA isolated was then used in a one-step quantitative real-time PCR reaction, using components of the UltraSense kit together with Applied Biosystems primer-probe mixes. 10 μL of template was amplified with 1.75 μL of IL-6 primer-probe, and 1 μL of hCyclophilin primer probe, and the reaction was carried out in multiplex. Real-time PCR data was analyzed, normalizing the Ct values for hIL-6 to hCyclophilin, prior to determining the fold induction of each unknown sample, relative to the control.
# [2] = system: hVCAM-1 mRNA; test: Quantification of hVCAM-1 mRNA in TNF-α-stimulated HUV-EC-C cells (real-time PCR); assay type: cell-based, human; set-up: key: Active: an active compound is one that causes a ≧20% inhibition in VCAM-1 mRNA at a concentration less than or equal to 10 μM; conditions: 1 h pretreatment, TNF-α 10 ng/mL, 24 h, VCAM-1 mRNA normalised to hCyclophilin, compound ≤10 μM
# Protocol: In this example, hVCAM-1 mRNA in tissue culture cells was quantitated to measure the transcriptional inhibition of hVCAM when treated with a compound of the invention.
# A human umbilical vein endothelial cell line (HUV-EC-C) was plated in a 96-well plate (5.0×10^3 cells/well) in 100 μL EGM complete media and incubated for 24 h prior to the addition of the compound of interest. The cells were pretreated for 1 h with the test compound in DMSO prior to stimulation with tumor necrosis factor-α (10 ng/mL). The cells were incubated for an additional 24 h before harvest. At time of harvest, the cells were rinsed in 200 μL PBS, and cell lysis solution (70 μL) was then added the cells for 10 min. mRNA was then prepared using the “mRNA Catcher PLUS plate” (Invitrogen), according to the protocol supplied.
# The eluted mRNA was then used in a one-step quantitative real-time PCR reaction, using components of the UltraSense kit together with Applied Biosystems primer-probe mixes. 10 μL of template was amplified with 1.75 μL of hVCAM-1 primer-probe, and 1 μL of hCyclophilin primer probe, and the reaction was carried out in multiplex. Real-time PCR data was analyzed, normalizing the Ct values for hVCAM-1 to hCyclophilin, prior to determining the fold induction of each unknown sample, relative to the control.
Structure (SMILES),Inhibition of IL-6 expression [1],Inhibition of VCAM-1 expression [2]
"COc1cc(OCCN(C)C)c2c(=O)[nH]c(-c3cc(C)c(O)c(C)c3)nc2c1 [Example 1, 5-(2-dimethylamino-ethoxy)-2(4-hydroxy-3,5-dimethylphenyl)-7-methoxy-3H-quinazolin-4-one]",Active,
"COCCOc1cc(OC)cc2nc(-c3cc(C)c(O)c(C)c3)[nH]c(=O)c12 [Example 2, 2-(4-hydroxy-3,5-dimethyl-phenyl)-7-methoxy-5-(2-methoxy-ethoxy)-3H-quinazolin-4-one]",Active,
"COc1cc(OCCN)cc2nc(-c3cc(C)c(O)c(C)c3)[nH]c(=O)c12 [Example 3, 7-(2-amino-ethoxy)-2-(4-hydroxy-3,5-dimethyl-phenyl)-5-methoxy-3H-quinazolin-4-one]",Active,Active
"COCCOc1cc(OC)c2c(=O)[nH]c(-c3cc(C)c(O)c(C)c3)nc2c1 [Example 4, 2-(4-hydroxy-3,5-dimethyl-phenyl)-5-methoxy-7-(2-methoxy-ethoxy)-3H-quinazolin-4-one]",Active,Active
"COc1cc(OCCOCc2cccnc2)cc2nc(-c3cc(C)c(O)c(C)c3)[nH]c(=O)c12 [Example 6, 2-(4-hydroxy-3,5-dimethylphenyl)-5-methoxy-7-[2-(pyridin-3-ylmethoxy)ethoxy]-3H-quinazolin-4-one]",Active,
"Cc1cc(-c2nc3ccc(Nc4ccncc4)cc3c(=O)[nH]2)cc(C)c1O [Example 8, 2-(4-hydroxy-3,5-dimethyl-phenyl)-6-(pyridin-4-ylamino)-3H-quinazolin-4-one]",Active,
"Cc1cc(-c2nc3ccc(CNS(C)(=O)=O)cc3c(=O)[nH]2)cc(C)c1O [Example 11, N-((2-(4-hydroxy-3,5-dimethylphenyl)-4-oxo-3,4-dihydroquinazolin-6-yl)methyl)methanesulfonamide]",Active,
"Cc1cc(-c2nc3ccc(N4CCOCC4)cc3c(=O)[nH]2)cc(C)c1OCCO [Example 12, 2-(4-(2-hydroxyethoxy)-3,5-dimethylphenyl)-6-morpholinoquinazolin-4(3H)-one]",Active,
"COc1cc(OC)c2c(=O)[nH]c(-c3cc(C)c(OCCOCc4ccccc4)c(C)c3)nc2n1 [Example 13, 2-(4-(2-(benzyloxy)ethoxy)-3,5-dimethylphenyl)-5,7-dimethoxypyrido[2,3-d]pyrimidin-4(3H)-one]",Active,
"Cc1cc(C)c2c(=O)[nH]c(-c3cc(C)c(OCCO)c(C)c3)nc2n1 [Example 14, 2-(4-(2-hydroxyethoxy)-3,5-dimethylphenyl)-5,7-dimethylpyrido[2,3-d]pyrimidin-4(3H)-one]",Active,
"Cc1cc(-c2nc3cc(OC(C)C)cc(OC(C)C)c3c(=O)[nH]2)cc(C)c1OCCO [Example 16, 2-[4-(2-hydroxy-ethoxy)-3,5-dimethyl-phenyl]-5,7-diisopropoxy-3H-quinazolin-4-one]",Active,
"COc1cc2nc(-c3cc(C)c(OCCO)c(C)c3)[nH]c(=O)c2c(OC)c1CN1CCOCC1.Cl [Example 19, 2-[4-(2-hydroxy-ethoxy)-3,5-dimethylphenyl]-5,7-dimethoxy-6-morpholin-4-ylmethyl-3H-quinazolin-4-one hydrochloride]",Active,
"COc1cc(OCCOCc2ccccc2)cc2nc(-c3ccc4oc(CO)cc4c3)[nH]c(=O)c12 [Example 24, 7-(2-benzyloxy-ethoxy)-2-(2-hydroxymethyl-benzofuran-5-yl)-5-methoxy-3H-quinazolin-4-one]",Active,
"COc1cc(OC)c2c(=O)[nH]c(-c3cc(C)c(OCC(=O)NCc4ccccc4)c(C)c3)nc2c1 [Example 27, N-benzyl-2-[4-(5,7-dimethoxy-4-oxo-3,4-dihydroquinazolin-2-yl)-2,6-dimethylphenoxy]acetamide]",Active,
"COc1cc(OC)c2c(=O)[nH]c(-c3cc(C)c(OCCNC=O)c(C)c3)cc2c1 [Example 41, N-{2-[4-(6,8-dimethoxy-1-oxo-1,2-dihydro-isoquinolin-3-yl)-2,6-dimethyl-phenoxy]-ethyl}-formamide]",Active,
"COc1cc(OC)c2c(=O)[nH]c(-c3cc(C)c(OCCNS(=O)(=O)C(C)C)c(C)c3)nc2c1 [Example 43, N-(2-(4-(5,7-dimethoxy-4-oxo-3,4-dihydroquinazolin-2-yl)-2,6-dimethylphenoxy)ethyl)propane-2-sulfonamide]",Active,
"COc1cc(OC)c2c(=O)[nH]c(-c3ccc(OCCNC(C)=O)c(C)c3)nc2c1 [Example 45, N-(2-(4-(5,7-dimethoxy-4-oxo-3,4-dihydroquinazolin-2-yl)-2-methylphenoxy)ethyl)acetamide]",Active,
"COc1cc(OC)c2c(=O)[nH]c(-c3cc(C)c(OCCN(C)C)c(C)c3)nc2c1 [Example 46, 2-(4-(2-(dimethylamino)ethoxy)-3,5-dimethylphenyl)-5,7-dimethoxyquinazolin-4(3H)-one]",Active,
"COc1cc(OC)c2c(=O)[nH]c(-c3cc(C)c(OCCNC=O)c(C)c3)nc2c1 [Example 48, N-(2-(4-(5,7-dimethoxy-4-oxo-3,4-dihydroquinazolin-2-yl)-2,6-dimethylphenoxy)ethyl)formamide]",Active,
"COc1cc(OC)c2c(=O)[nH]c(-c3cc(C)c(OCCN(C)C=O)c(C)c3)nc2c1 [Example 49, N-(2-(4-(5,7-dimethoxy-4-oxo-3,4-dihydroquinazolin-2-yl)-2,6-dimethylphenoxy)ethyl)-N-methylformamide]",Active,
"COc1cc(OC)c2c(=O)[nH]c(-c3cc(C)c(OCCNS(=O)(=O)N(C)C)c(C)c3)nc2c1 [Example 50, N-(2-(4-(5,7-dimethoxy-4-oxo-3,4-dihydroquinazolin-2-yl)-2,6-dimethylphenoxy)ethyl)dimethylamino-N-sulfonamide]",Active,
"COc1cc(OC)c2c(=O)[nH]c(-c3cc(C)c(OCCNc4cc(C)on4)c(C)c3)nc2c1 [Example 52, 2-(3,5-dimethyl-4-(2-(5-methylisoxazol-3-ylamino)ethoxy)phenyl)-5,7-dimethoxyquinazolin-4(3H)-one]",Active,
"COc1cc(OC)c2c(=O)[nH]c(-c3cc(C)c(OCCNc4ncccn4)c(C)c3)nc2c1 [Example 53, 2-(3,5-dimethyl-4-(2-(pyrimidin-2-ylamino)ethoxy)phenyl)-5,7-dimethoxyquinazolin-4(3H)-one]",Active,
"COc1cc(OC)c2c(=O)[nH]c(-c3cc(C)c(OCCNc4ccon4)c(C)c3)nc2c1 [Example 54, 2-(4-(2-(isoxazol-3-ylamino)ethoxy)-3,5-dimethylphenyl)-5,7-dimethoxyquinazolin-4(3H)-one]",Active,
"COc1cc(OC)c2c(=O)[nH]c(-c3cc(C)c(OCCNc4nc(OC)cc(OC)n4)c(C)c3)nc2c1 [Example 55, 2-(4-(2-(4,6-dimethoxypyrimidin-2-ylamino)ethoxy)-3,5-dimethylphenyl)-5,7-dimethoxyquinazolin-4(3H)-one]",Active,
"COc1cc(OC)c2c(=O)[nH]c(-c3cc(OC)c(CCCO)c(OC)c3)nc2c1 [Example 56, 2-[4-(3-hydroxy-propyl)-3,5-dimethoxyphenyl]-5,7-dimethoxy-3H-quinazolin-4-one]",Active,
"COc1cc(OC)c2c(=O)[nH]c(-c3ccc(CCCO)c(OC)c3)nc2c1 [Example 57, 2-[4-(3-hydroxy-propyl)-3-methoxy-phenyl]-5,7-dimethoxy-3H-quinazolin-4-one]",Active,
